We go through 13 compounds from ChEMBL document CHEMBL1143674, “Isoprenylated flavonoids from the stem bark of Erythrina abyssinica” (J Nat Prod, 2007).

One may read the IC50 as the concentration at which inhibition is half-maximal.

SMILES strings stand for the structures. A value given as a limit tells only on which side of the number the result lay.

For this assay, the target named is T1, Tyrosine-protein phosphatase non-receptor type 1 (Homo sapiens, UniProt P18031).
T1 sequence (P18031 whole entry): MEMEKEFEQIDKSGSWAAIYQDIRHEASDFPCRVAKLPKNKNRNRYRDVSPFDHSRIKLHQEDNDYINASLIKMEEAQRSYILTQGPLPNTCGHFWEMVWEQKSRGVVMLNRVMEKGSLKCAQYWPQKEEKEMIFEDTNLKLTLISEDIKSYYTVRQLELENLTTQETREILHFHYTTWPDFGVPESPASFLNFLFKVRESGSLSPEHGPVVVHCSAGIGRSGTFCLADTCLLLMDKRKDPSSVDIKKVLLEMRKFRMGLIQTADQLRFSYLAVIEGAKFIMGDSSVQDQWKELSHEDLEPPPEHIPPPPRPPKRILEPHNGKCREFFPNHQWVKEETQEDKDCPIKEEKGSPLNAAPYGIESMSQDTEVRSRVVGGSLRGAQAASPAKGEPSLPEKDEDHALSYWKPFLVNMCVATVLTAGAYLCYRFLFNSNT
Description: Inhibition of human recombinant PTP1B.
Regarding `CC(C)=CCc1cc([C@@H]2CC(=O)c3c(O)cc(O)cc3O2)cc(O)c1O` [SIGMOIDIN B], the IC50 was found to be 19.4 µM. For `COc1cc([C@@H]2CC(=O)c3ccc(O)cc3O2)cc(CC=C(C)C)c1O`, the IC50 was determined as 19.2 µM. Turning to `COc1cc([C@@H]2CC(=O)c3c(O)cc(O)cc3O2)cc(CC=C(C)C)c1O` [ABYSSININ II], the IC50 came out at 17.3 µM. The same measure for `CC(C)=CCc1cc([C@@H]2CC(=O)c3c(O)cc(O)cc3O2)cc2ccoc12` [ABYSSINOFLAVANONE VI]: 18.9 µM; for `CC(C)=CCc1cc([C@@H]2CC(=O)c3c(O)cc(O)cc3O2)c(CC=C(C)C)c(O)c1O` [SIGMOIDIN A]: 14.4 µM. With `CC(C)=CCc1cc(/C=C/C(=O)c2ccc(O)cc2O)ccc1O` [LICOAGROCHALCONE A], the IC50 turned out to be 16.9 µM. As for `CC1(C)C=Cc2cc([C@@H]3CC(=O)c4c(O)cc(O)cc4O3)cc(O)c2O1` [SIGMOIDIN C], the figure is > 60 µM. With `CC(C)=CCc1cc(-c2cc(=O)c3c(O)cc(O)cc3o2)ccc1O`, the IC50 stood at 26.7 µM.

For the compound `CC1(C)C=Cc2cc([C@@H]3CC(=O)c4c(O)cc(O)cc4O3)ccc2O1` [ABYSSINOFLAVONE V], the IC50 is > 60 µM. For the compound `C=C(C)C(O)Cc1cc([C@@H]2CC(=O)c3c(O)cc(O)cc3O2)cc(CC=C(C)C)c1O` (stereo partly drawn) [ABYSSINOFLAVANONE VII], the IC50 was found to be 15.7 µM. As for `CC(C)=CCc1c([C@H]2CC(=O)c3c(O)cc(O)cc3O2)cc2c(c1O)OC(C)(C)C=C2` [SIGMOIDIN F], the IC50 worked out at 14.2 µM. In the case of `COc1cc(C2CC(=O)c3c(O)cc(O)cc3O2)cc2c1OC(C)(C)C=C2` (stereo not drawn) [ABYSSININ I], the IC50 stood at 18.2 µM.

In the case of `CC(C)=CCc1cc(/C=C/C(=O)c2ccc(O)cc2O)cc(CC=C(C)C)c1O` [ABYSSINONE VI], the IC50 worked out at 20.6 µM.
